Data on 43 compounds can be found in PubChem BioAssay (NCI).

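Compound exposure: 48 hours, 5 concentrations, 96-well plates. The concentration for 50% growth inhibition is given as GI50. Definition used: TGI = concentration required for complete inhibition of growth.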 Where a SMILES comes first, the peptide text is derived from it. [ ]: non-standard residue; d: D form. pGlu = O=C1CC[CH](C(=O)O)N1; Thz = O=C(O)[CH]1CSCN1

Test systems include HT29 colon; KM20L2 colon; DMS 273 small cell lung; M19-MEL melanoma; LXFL 529 NSCLC; DLD-1 colon; DMS 114 small cell lung; SNB-78 CNS; XF 498 CNS; HOP-18 NSCLC.
What all share (test): NCI-60 cell line screen, 48 h

Take `O=c1[nH]c(NCc2cccnc2)nc2nc[nH]c12`: the TGI in the test with HT29 colon is over 100 µM. Same read-out and setting: with `CC1CCN(C(C)C)P(=S)(Cc2ccccc2)O1` (configuration not stated) the figure was over 100 µM; with `CCCCCCN(CCCCCC)CCC(=O)c1ccc2cc(Br)c3ccccc3c2c1`, over 100 µM. On the same count and under the same terms, with `COC(=O)C(CNC(=O)/C=C/c1ccc(OC)c(OC)c1)NC(=O)/C=C/c1ccc(OC)c(OC)c1` (configuration not stated) the figure was over 100 µM; with `COc1ccc(/C=C2\N=C(N3CCCC(CO)C3)NC2=O)cc1` (configuration not stated), over 100 µM. `O=C(Cc1ccc2ccccc2c1)NCc1ccc(C(=O)NCCc2ccccc2)cc1` had a TGI with HT29 colon of over 100 µM.

Compound `O=C(Nc1ccccc1)N(CCN(Cc1ccccc1)C(=O)Nc1ccccc1)CCN(Nc1ccccc1)C(=O)Nc1ccccc1` came in with a TGI in the test on HT29 colon of over 100 µM. `COc1ccc(C2SCC(=O)N2c2ccc(-n3c(-c4ccccc4)nc4ccccc4c3=O)cc2)cc1` (configuration not stated) came in with a TGI with HT29 colon of over 100 µM. Regarding `O=c1onc2n1-c1ccc(Cl)cc1C(=S)N1CSCC21` (configuration not stated), the TGI in the test with HT29 colon was 53.1 µM. On the same count and under the same terms, next, `CCCCSC1=N/C(=C\c2ccccc2O)C(=O)N1`: over 100 µM.

In the test on HT29 colon, `Nc1nc(Cl)cc(NCC2(CCO)CCC2)n1` gave a TGI of over 100 µM.

Take `CN1CCC2(CC1)SSC1(CCN(C)CC1)S2`: the TGI in the test with HT29 colon is over 100 µM. For `Cc1ccc2c(c1)nc1n2C(c2c(F)cccc2F)SC1` (configuration not stated), the TGI in the test with HT29 colon was over 100 µM. In the case of `Cn1c(-c2ccc(C=O)o2)ccc1-c1ccc(C=O)o1`, in the test with HT29 colon, the TGI is over 100 µM. The same measure, in the same setting: with `CC1OC(OC2C(O)COC(OC3C(C)OC(OC4C(OC(=O)[C@]56CCC(C)(C)C[C@@H]5C5=CCC7[C@@]8(C)C[C@H](O)[C@H](OC9OC(CO)C(O)C(O)C9O)[C@@](C)(CO)[C@@H]8CC[C@@]7(C)[C@]5(C)CC6)OCC(O)C4O)C(O)C3O)C2O)C(O)C(O)C1O` (some centres not stated) the figure was 48.8 µM. In turn, `CCOC(=O)CNC(=O)C(CCC(=O)N(C)O)NC(=O)CCC(N)C(=O)O` (configuration not stated) gave a TGI in the test on HT29 colon of over 100 µM.

As to `COc1ccc(C(=O)/C=C/c2ccc(OCCCCCCCCCCOc3ccc(/C=C/C(=O)c4ccc(OC)cc4)cc3)cc2)cc1`, the TGI in the test with HT29 colon is over 100 µM. For the compound `CC1C(C)(C)C23CC12C1(OCCO1)C3Br` (configuration not stated), the TGI with HT29 colon is over 100 µM. In the case of `Cc1cc(N(CCC#N)CCC#N)ccc1/C(N=Nc1ccc([N+](=O)[O-])cc1)=N\NC(=O)c1cc(Cl)ccc1O`, the TGI in the test with HT29 colon was over 100 µM.

In the test with HT29 colon, `CC(=O)Nc1nc(C)c(S(=O)(=O)NC(=O)NC2NC(=O)NC2=O)s1` (configuration not stated) had a TGI of over 100 µM.

In the test with HT29 colon, `O=C1CCC(C(=O)N2CSCC2C(=O)O)N1` (configuration not stated) ([pGlu]-[Thz]-OH; configuration not given here) showed a TGI of over 100 µM. On to `O=S1(=O)c2ccccc2N(O)C2=NCCN21`, for which the TGI in the test on HT29 colon, in the test on KM20L2 colon, with DMS 273 small cell lung, with M19-MEL melanoma, in the test on LXFL 529 NSCLC and in the test on DLD-1 colon was over 100 µM in each case. The TGI in the test with DMS 114 small cell lung and in the test on SNB-78 CNS was over 100 µM in each case. Turning to `CC(C)(C)C1=CC(=N/N=c2\scc(-c3ccccc3)n2-c2ccccc2)C=C(C(C)(C)C)C1=O`, the TGI in the test with HT29 colon, with KM20L2 colon, in the test on XF 498 CNS, in the test with DMS 273 small cell lung, in the test with M19-MEL melanoma and in the test with HOP-18 NSCLC was over 100 µM in each case. The TGI in the test with LXFL 529 NSCLC, with DLD-1 colon, in the test with DMS 114 small cell lung and in the test on SNB-78 CNS was over 100 µM each time. As to `NS(=O)(=O)c1ccc(NC(=O)N/N=C/c2ccccc2[N+](=O)[O-])cc1`, in the test with HT29 colon, the TGI is over 100 µM. In the test with HT29 colon, `CCOP(=O)(CC(=O)C1CC1)OCC` displayed a TGI of over 100 µM. In the case of `COC(=O)C(Cc1c[nH]c2ccccc12)NC(=O)C(Cc1cnc[nH]1)NC(=O)C1CCC(=O)N1C(=O)OCc1ccccc1` (configuration not stated), the TGI with HT29 colon was over 100 µM. As for `FC1(F)ON2CCc3ccccc3C2[C@H]1c1ccccc1` (some centres not stated), in the test with HT29 colon, the GI50 was over 100 µM and the TGI is over 100 µM. For the compound `COC(=O)[C@H](Cc1ccccc1)NC(=O)c1ccc(CNC(=O)/C=C/c2ccc(OCc3ccccc3)cc2)cc1`, the TGI in the test with HT29 colon is over 58 µM. `Cc1nc2c(c(N3CCN(C)CC3)n1)Cc1ccccc1-2` showed a TGI with HT29 colon of over 100 µM. Same read-out and setting: next, `COc1ccc2[nH]cc(CCNC(=O)[C@H](Cc3ccc(O)cc3)NC(=O)[C@@H](NCC(F)(F)F)C(C)C)c2c1`: over 100 µM; `O=S(=O)(O)c1ccc(N=Nc2ccccc2)cc1`: over 100 µM; `CN(O)C(=O)CCC(NC(=O)CCC(N)C(=O)O)C(=O)NCC(=O)O` (configuration not stated): over 100 µM. The same measure, in the same setting: with `O=[N+]([O-])c1ncc(N(CCO)CCO)s1` the figure was over 100 µM; with `S=C(NCc1ccccc1)Nc1sc(=NCc2ccccc2)nc2sc3c(c12)CCN(N1CCc2c(sc4nc(=NCc5ccccc5)sc(NC(=S)NCc5ccccc5)c24)C1)C3`, 43.3 µM; with `C=C1C2CCC3C4(C)CCCC(C)(C(=O)O)C4CCC3(C2)C1OC(=O)/C(C)=C/C` (configuration not stated), over 100 µM. As for `C#CC1(O)CCC2[C@@H]3CCc4cc(Oc5nc(F)nc(-c6c(C)c(C(=O)OCC)n7ccccc67)n5)ccc4C3CC[C@@]21C` (some centres not stated), the TGI in the test with HT29 colon is over 100 µM. Take `O=C1CCCCCCC2=C1C(Sc1ccccc1)CC2` (configuration not stated): the TGI with HT29 colon was 83.8 µM; in the test with KM20L2 colon, over 100 µM; in the test with DMS 273 small cell lung, 61.7 µM; in the test on M19-MEL melanoma, over 100 µM; with HOP-18 NSCLC, over 100 µM; in the test with LXFL 529 NSCLC, over 100 µM. Also, the TGI in the test with DMS 114 small cell lung is 76.4 µM; with SNB-78 CNS it was over 100 µM.

`COc1ccc(/C=N\N(C)Cc2cccc3ccsc23)cc1` showed a TGI in the test on HT29 colon of over 100 µM.

In the test with HT29 colon, `COc1ccc(S(=O)(=O)Nc2ccc(-c3csc(N4C(=O)/C(=C/c5ccccc5[N+](=O)[O-])N=C4c4ccccc4)n3)cc2)cc1Cl` came in with a TGI of over 100 µM.

`Cc1nc(-c2ccccc2)cn2c1nc1ccccc12` displayed a TGI in the test on HT29 colon of over 56.4 µM. On to `C#C[C@]1(O)CC[C@H]2[C@@H]3CCC4=C/C(=N\OCCN5CCCCC5)CC[C@]4(C)[C@H]3CC[C@@]21C`, for which, in the test with HT29 colon, the TGI was 22.4 µM. Same read-out and setting: next, `CC(C)C1CSC2N1C(=O)C2(OCc1ccccc1)C1CC1` (configuration not stated): over 100 µM.

As to `COC(=O)CCc1ccc(CCC(=O)OC)cc1`, the TGI in the test on HT29 colon is over 100 µM.
